A word on the MIC: it is the smallest concentration in the dilution series that meets the test's criterion for growth inhibition. As a reminder, the IC50 is the concentration that inhibits the measured activity by half. A high value points to a need for much substance.

Consider six compounds from article PMC6155222, “3-Substituted N-Benzylpyrazine-2-carboxamide Derivatives: Synthesis, Antimycobacterial and Antibacterial Evaluation” (Molecules : A Journal of Synthetic Chemistry and Natural …, 2017).

≈ marks a conversion by molar mass, not a printed value. Bounds are passed on as bounds.

In data set [1] the test system is Mycobacterium tuberculosis H37Rv. In words: Microplate Alamar Blue Assay (MABA), microdilution panel method. Type of data set: cell-based.
In data set [2] the test system is Mycobacterium smegmatis CCM 4622 (ATCC 607). In words: Antimycobacterial screening, microdilution broth panel method with resazurin. It is filed as cell-based. The conditions noted are these: Mycolicibacterium smegmatis, 48 h + 4 h. Here is the method: An antimycobacterial assay was performed with fast growing Mycobacterium smegmatis CCM 4622 (ATCC 607) from the Czech Collection of Microorganisms (Brno, Czech Republic). The technique used for activity determination was a microdilution broth panel method using 96-well microtitration plates. The culturing medium was Middlebrook 7H9 (MB) broth (Sigma-Aldrich), enriched with 0.4% of glycerol (Sigma-Aldrich) and 10% of Middlebrook OADC growth supplement (Himedia, Mumbai, India). Tested compounds were dissolved in DMSO (Sigma-Aldrich), and the MB broth was then added to obtain a concentration of 2000 μg·mL^−1. Standards used for activity determination were isoniazid (INH), rifampicin (RIF), and ciprofloxacin (CPX) (Sigma-Aldrich). Final concentrations were reached by binary dilution and the addition of mycobacterial suspension, and were set as 500, 250, 125, 62.5, 31.25, 15.625, 7.81, and 3.91 μg·mL^−1, except for the standards of ciprofloxacin and rifampicin, where the final concentrations were 12.5, 6.25, 3.125, 1.56, 0.78, 0.39, 0.195, and 0.098 μg·mL^−1. […] Plates were also sealed with polyester adhesive film and incubated in the dark at 37 °C, without agitation. The addition of 0.01% solution of resazurin sodium salt followed after 48 h. This stain was prepared by dissolving resazurin sodium salt (Sigma-Aldrich) in deionised water, producing a 0.02% solution. Then, a 10% aqueous solution of Tween 80 (Sigma-Aldrich) was prepared. Both liquids were mixed up making use of the same volumes and filtered through a syringe membrane filter. Microtitration panels were then incubated for a further 4 h. Antimycobacterial activity was expressed as the minimal inhibition concentration (MIC) and the value was read on the basis of stain colour change (blue colour—active compound; pink colour—not active compound). […] All experiments were conducted in duplicate.
For orientation: In broth dilution the organism is exposed to a series of concentrations in liquid medium.

The nature of data set [3]: Cytotoxicity assay, CellTiter 96 Aqueous One Solution. It is filed as cell-based. The conditions noted are these: human, HepG2 cells; for IC50 at 24 h: 24 h exposure. The protocol: The human liver hepatocellular carcinoma cell line HepG2 (passage 35–36), purchased from Health Protection Agency Culture Collections (ECACC, Salisbury, UK), was routinely cultured in Minimum Essential Eagle Medium MEM (Sigma-Aldrich) supplemented with 10% fetal bovine serum (PAA Laboratories GmbH, Pasching, Austria), 2mM L-glutamine solution (Sigma-Aldrich), and 1% non-essential amino acid solution (Sigma-Aldrich), in a humidified atmosphere containing 5% CO2 at 37 °C.
For subculturing, the cells were harvested after trypsin/EDTA (Sigma-Aldrich) treatment at 37 °C. To evaluate the cytotoxicity, the HepG2 cells treated with the tested substances were used as experimental groups, whereas untreated HepG2 cells served as control groups.
The HepG2 cells were seeded in a density of 1 × 10^4 cells per well on a 96-well plate. The following day (24 h after seeding), they were treated with tested substances dissolved in DMSO (maximal incubation concentration of DMSO was 1%). […] The treatment was carried out in a humidified atmosphere containing 5% CO2 at 37 °C, in triplicate, for 24 h. The controls representing 100% cell viability, 0% cell viability (the cells treated with 10% DMSO), no-cell controls, and vehiculum controls were incubated in triplicate, simultaneously. After 24 h exposure, the reagent from the kit CellTiter 96® Aqueous One Solution Cell Proliferation Assay (Promega) was added, according to the recommendation of the manufacturer. After 2 h incubation at 37 °C in humidified, 5% CO2 atmosphere, the absorbance was recorded at 490 nm. Inhibitory curves were constructed for each compound, plotting incubation concentrations vs. percentage of absorbance relative to untreated control. The standard toxicological parameter IC50 was calculated by a nonlinear regression analysis of the inhibitory curves using GraphPad Prism software (version 6, GraphPad Software, Inc., La Jolla, CA, USA).

Data set [4] is described as follows: Determination of lipophilicity by RP-HPLC (log k). The following applies: RP-HPLC capacity factor, MeOH 70% / H2O 30%, C18, 30 °C.
Procedure: Log k was determined using an Agilent Technologies 1200 SL liquid chromatograph with Diode-array Detector SL G1315C (Agilent Technologies Inc., Colorado Springs, CO, USA), with pre-column ZORBAX XDB-C18 5 μm, 4 mm × 4 mm, Part No. 7995118-504 (Agilent Technologies Inc.) and column ZORBAX Eclipse XDB-C18 5 μm, 4.6 mm × 250 mm, Part No. 7995118-585 (Agilent Technologies Inc.). The separation process was controlled by Agilent ChemStation, version B.04.02, extended by a spectral module (Agilent Technologies Inc.). The mobile phase consisted of MeOH (HPLC grade, 70%) and H2O (HPLC-Milli-Q Grade, 30%).
The flow rate was 1.0 mL/min, samples were injected in a volume of 20 μL, and the column temperature was 30 °C. A value of 210 nm as the detection wavelength and 270 nm as the monitor wavelength were used. Retention times (tR) were measured in minutes. The dead time of the system (tD) was determined as the retention time of the KI methanol solution. Capacity factors k for individual compounds were calculated according to the formula k = (tR − tD)/tD. Log k, calculated from the capacity factor k, as used as the lipophilicity index converted to log scale.
Data set [5] relates to M. kansasii Hauduroy CNCTC My 235/80. In words: Microplate Alamar Blue Assay (MABA), microdilution panel method. Type of data set: cell-based. The following applies: Mycobacterium kansasii. Background: Resazurin is reduced to fluorescent resorufin, in cell work by metabolically active cells.
The test system of data set [6] is M. avium ssp. avium Chester CNCTC My 80/72. The description is as above. It is filed as cell-based. The conditions noted are these: Mycobacterium avium.
Data set [7] deals with Staphylococcus aureus CCM 4516/08. As to the kind of experiment: Antibacterial microdilution broth method. Type of data set: cell-based. The following applies: CCM4516, 24 h, read-out: MIC after 24 h S. aureus. The protocol:
(§1) Microdilution broth method. Antibacterial evaluation was performed against eight bacterial strains from the Czech Collection of Microorganisms (Brno, Czech Republic) (Staphylococcus aureus CCM 4516/08, Escherichia coli CCM 4517, Pseudomonas aeruginosa CCM 1961) or clinical isolates from the Department of Clinical Microbiology, University Hospital and Faculty of Medicine in Hradec Králové, Charles University in Prague, Czech Republic (Staphylococcus aureus H 5996/08-methicilin resistant (MRSA), Staphylococcus epidermidis H 6966/08, Enterococcus sp. J 14365/08, Klebsiella pneumoniae D 11750/08, Klebsiella pneumoniae J 14368/08-ESBL positive). All strains were subcultured on Mueller-Hinton agar (MHA) (Difco/Becton Dickinson, Detroit, MI, USA) at 35 °C and maintained on the same medium at 4 °C. The compounds were dissolved in DMSO, and the antibacterial activity was determined in Mueller-Hinton liquid broth (Difco/Becton Dickinson), and buffered to pH 7.0. Controls consisted of medium and DMSO alone. […] The minimum inhibitory concentration (MIC), defined as the minimum concentration to prevent the visible growth compared to control, was determined after 24 and 48 h of static incubation at 35 °C. The standards were neomycin, bacitracin, penicillin G, ciprofloxacin, and phenoxymethylpenicillin.

Data set [8] concerns Staphylococcus aureus H 5996/08-methicilin resistant (MRSA). As to the kind of experiment: Antibacterial microdilution broth method. It is filed as cell-based. The conditions noted are these: Staphylococcus aureus, MRSA, 24 h; read-out: MIC after 24 h MRSA. The protocol:
as §1

In data set [9] the test system is Staphylococcus epidermidis H 6966/08. As to the kind of experiment: Antibacterial microdilution broth method. Type of data set: cell-based. The following applies: Staphylococcus epidermidis, H6966/08, 24 h; read-out: MIC after 24 h S. epidermidis. The protocol:
as §1

Consider `O=C(NCc1ccc(Cl)c(Cl)c1)c1nccnc1NCc1ccc(Cl)c(Cl)c1` [Compound 9a, N-(3,4-Dichlorobenzyl)-3-((3,4-dichlorobenzyl)amino)pyrazine-2-carboxamide], for which the MIC is 12.5 µg/mL in [1] (pH 6.6), 27 µM in data set [1] (value in parentheses) and greater than 500 µg/mL in data set [2]. This compound also returned an IC50 at 24 h in [3] greater than 100 µM. This compound also had a Log k in [4] of 1.997.

Turning to `O=C(NCc1ccc(Cl)cc1)c1nccnc1NCc1ccc(Cl)cc1` [Compound 7a, N-(4-Chlorobenzyl)-3-((4-chlorobenzyl)amino)pyrazine-2-carboxamide], the minimum inhibitory concentration (MIC) is greater than 50 µg/mL in data set [1] (pH 6.6), greater than 250 µg/mL in data set [2], greater than 50 µg/mL in [5] and greater than 50 µg/mL in data set [6]. In addition, the Log k in [4] is given as 1.533.

Turning to `NNC(=O)c1ccncc1` [INH, isoniazid, reference compound], the MIC in data set [1] (pH 6.6) was 0.2 µg/mL; in data set [2] it was 7.81 to 15.6 µg/mL; in data set [5], 3.13 to 12.5 µg/mL (≈ 22.8 to 91.1 µM); in [6], 6.25 to 12.5 µg/mL (≈ 45.6 to 91.1 µM).

Turning to `Cc1ccccc1CNC(=O)c1nccnc1NCc1ccccc1C` [Compound 1a, N-(2-Methylbenzyl)-3-((2-methylbenzyl)amino)pyrazine-2-carboxamide], the minimal inhibitory concentration (MIC) in data set [1] (pH 6.6) is 12.5 µg/mL; in [1] (value in parentheses), 36 µM; in data set [2] it was greater than 500 µg/mL. Also, the IC50 at 24 h in data set [3] was greater than 250 µM. In addition, the Log k in [4] is listed as 1.459.

As to `COc1ccc(CNC(=O)c2nccnc2NCc2ccc(OC)cc2)cc1` [Compound 3a, N-(4-Methoxybenzyl)-3-((4-methoxybenzyl)amino)pyrazine-2-carboxamide], the MIC is 50 µg/mL in data set [1] (pH 6.6); 132 µM in data set [1] (value in parentheses); greater than 500 µg/mL in data set [2]; 15.6 µM (≈ 5.91 µg/mL) in data set [7]; 62.5 µM (≈ 23.7 µg/mL) in data set [8]; greater than 500 µM in data set [9]. In addition, in data set [3], the IC50 at 24 h was greater than 100 µM. In data set [4], this compound displayed a Log k of 0.981.

Regarding `O=C(NCc1ccccc1Cl)c1nccnc1Cl` [Compound 5, 3-Chloro-N-(2-chlorobenzyl)pyrazine-2-carboxamide], the MIC is greater than 100 µg/mL in data set [1] (pH 6.6); 250 µg/mL in data set [2]; 7.81 µM (≈ 2.2 µg/mL) in data set [7]; 500 µM (≈ 141 µg/mL) in data set [8]; 15.6 µM (≈ 4.41 µg/mL) in data set [9]. In addition, the selectivity ratio at 24 h in [3] (HepG2 IC50 / MIC S. aureus, read-out: selectivity index, SI = IC50/MIC) was 108. This compound showed an IC50 at 24 h in data set [3] of 847 µM. Further, the Log k in [4] is 0.033.
